Here are results for two compounds from paper PMC3936431 (Biomolecules & Therapeutics, 2014).

Series [1] is described as follows: Stability in stock solutions and plasma samples. The class given is physicochemical, rabbits. To be noted: for stock solution stability, mean %change: room temperature 12 h and 4°C 30 days.
A short description of series [2]: In vitro release, USP paddle method, phosphate buffer pH 7.4. Type of series: physicochemical. The following applies: in the first 30 min; paddle 100 rpm, phosphate buffer pH 7.4, 37°C.
Series [3] in a line: Pharmacokinetic studies after single intravenous or rectal administration. To be noted: for Tmax / AUC(0-inf) / AUC(0-t): New Zealand white, rabbit, in vivo; for AUC(0-inf): AUC0-∞; for AUC(0-inf) / AUC(0-t) / AUC0-∞ / AUC0–30h: rabbits, plasma; for AUC(0-t): AUC0–30h.
[4] abbreviates: 100 mg/kg, rectal administration (suppository).
Where [5] appears, read: iv, 50 mg/kg, intravenous administration.
Setting [6] is: intravenous administration, 50 mg/kg.
The mark [7] stands for this setting: rectal administration (suppository), 100 mg/kg.

By Tmax is commonly meant the time from dosing to the highest level. As usually defined, the AUC(0-inf) is total exposure, with the tail of the curve extrapolated. A high value points to more exposure. One may read the AUC(0-t) as exposure summed from dosing to a finite time, without extrapolation to infinity. Higher therefore signals high exposure. As for `CCc1c2c(nc3ccc(OC(=O)N4CCC(N5CCCCC5)CC4)cc13)-c1cc3c(c(=O)n1C2)COC(=O)[C@]3(O)CC` [irinotecan, 7-ethyl-10-[4-(1-piperidino)-1-piperidino]-carbonyloxy-camptothecin], the stock solution stability result in series [1] (4°C for 30 days) and in series [1] (room temperature for 12 h) was “stable” throughout. Also, in series [1], the “stock solution stability, mean %change” value is recorded as below 7.7%. Moreover, the drug released in series [2] is given as 95%. Besides, the Tmax is 4 h in series [3] (100 mg/kg) and 0.25 h in series [3] (iv, 50 mg/kg). The AUC(0-inf) in series [3] (setting [4]) was found to be 41600 ± 7200 ng·h/mL; in series [3] (setting [5]) it was 82300 ± 9500 ng·h/mL. In addition, the figures for the AUC(0-t) in series [3] (setting [4]) and in series [3] (setting [5]) were 32200 ± 6200 ng·h/mL and 71300 ± 8800 ng·h/mL, respectively. The figures for the “AUC0-∞” value in series [3] (setting [6]) and in series [3] (setting [7]) were 82330 ± 9470 ng·h/mL and 41620 ± 7240 ng·h/mL, respectively. Moreover, the “AUC0–30h” value in series [3] (setting [6]) is 71310 ± 8750 ng·h/mL; in series [3] (setting [7]) it was 32150 ± 6150 ng·h/mL.

`CC[C@@]1(O)C(=O)OCc2c1cc1n(c2=O)Cc2cc3ccccc3nc2-1` [IS, camptothecin]: the stock solution stability result in series [1] (4°C for 30 days) and in series [1] (room temperature for 12 h) was “stable” throughout. For the same compound, the “stock solution stability, mean %change” value in series [1] is recorded as below 7.7%.
